{
  "source": "patent US20160313301A1",
  "about": "“METHOD FOR PREDICTING ANTITUMOR EFFICACY OF HSP90 INHIBITOR IN CANCER TREATMENT” (NIPPON KAYAKU KABUSHIKI KAISHA, priority 2013, published 2016)",
  "format_in_all_cases": "in vivo",
  "key": {"[1]": {"system": "human ovarian cancer cells OVCAR-3", "test": "Anti-tumor test in mice transplanted subcutaneously with tumor (OVCAR-3)"}, "[2]": {"system": "human ovarian cancer cells OC-11-JCK/PTX", "test": "Anti-tumor test in mice transplanted subcutaneously with tumor (OC-11-JCK/PTX)", "conditions": "OC-11-JCK/PTX s.c. in mice", "experimental": "Human ovarian cancer cell lines OC-10-JCK, OC-11-JCK, and TOGY-18, and a human breast cancer cell line MC-19-JCK were obtained from Central Institute for Experimental Animals. Cryopreserved tumor pieces were thawed, and then OC-10-JCK, OC-11-JCK, and MC-19-JCK were transplanted subcutaneously to SCID mice, while TOGY-18 was transplanted subcutaneously to nude mice. After the tumors were grown, the tumors were removed and cut into tumor pieces. The tumor pieces were transplanted subcutaneously to SCID mice or nude mice with trocars. The tumors were maintained by repeated transplantation in the same manner as described above to prepare tumors to be transplanted. Human ovarian cancer cell lines ES-2, SK-OV-3, OV-90, and TOV-21G, and a human lung cancer cell line NCI-H1975 were obtained from American Type Culture Collection (ATCC). The SK-OV-3 and NCI-H1975 cell lines were grown in recommended culture media, of which about 1×10^7 cells were suspended into HBSS and then injected subcutaneously to SCID mice. After the cells formed tumors, the tumors were removed and cut into tumor pieces. The tumor pieces were transplanted subcutaneously to SCID mice with trocars. The tumors were maintained by repeated transplantation in the same manner as described above to prepare tumors to be transplanted. The OV-90 cell line was grown in a recommended culture medium, of which about 1×10^6 cells were suspended into HBSS and then injected subcutaneously to SCID mice. After the cells formed a tumor, the tumor was subjected to an anti-tumor test. The TOV-21G cell line was grown in a recommended culture medium, of which about 1×10^7 cells were suspended into HBSS and then injected subcutaneously to SCID mice. After the cells formed a tumor, the tumor was subjected to the anti-tumor test. The ES-2 cell line was grown in a recommended culture medium, suspended into HBSS, and then injected subcutaneously to nude mice. After the cells formed a tumor, the tumor was removed and cut into tumor pieces. The tumor pieces were transplanted subcutaneously to nude mice with a trocar. […]"}, "[3]": {"system": "human ovarian cancer cells OC-11-JCK/CDDP", "test": "Anti-tumor test in mice transplanted subcutaneously with tumor (OC-11-JCK/CDDP)", "conditions": "OC-11-JCK/CDDP s.c. in mice; 40 mg/kg tail vein three times at 4 day intervals", "experimental": "(§1) Human ovarian cancer cell lines OC-10-JCK, OC-11-JCK, and TOGY-18, and a human breast cancer cell line MC-19-JCK were obtained from Central Institute for Experimental Animals. Cryopreserved tumor pieces were thawed, and then OC-10-JCK, OC-11-JCK, and MC-19-JCK were transplanted subcutaneously to SCID mice, while TOGY-18 was transplanted subcutaneously to nude mice. After the tumors were grown, the tumors were removed and cut into tumor pieces. The tumor pieces were transplanted subcutaneously to SCID mice or nude mice with trocars. The tumors were maintained by repeated transplantation in the same manner as described above to prepare tumors to be transplanted. Human ovarian cancer cell lines ES-2, SK-OV-3, OV-90, and TOV-21G, and a human lung cancer cell line NCI-H1975 were obtained from American Type Culture Collection (ATCC). The SK-OV-3 and NCI-H1975 cell lines were grown in recommended culture media, of which about 1×10^7 cells were suspended into HBSS and then injected subcutaneously to SCID mice. After the cells formed tumors, the tumors were removed and cut into tumor pieces. The tumor pieces were transplanted subcutaneously to SCID mice with trocars. The tumors were maintained by repeated transplantation in the same manner as described above to prepare tumors to be transplanted. […]"}, "[4]": {"system": "human ovarian cancer cell line OC-10-JCK", "test": "Anti-tumor test in mice transplanted subcutaneously with tumor (OC-10-JCK)", "conditions": "OC-10-JCK s.c. in mice; 40 mg/kg tail vein three times at 4 day intervals", "experimental": "as §1"}, "[5]": {"system": "human lung cancer cells NCI-H1975", "test": "Anti-tumor test in mice transplanted subcutaneously with tumor (NCI-H1975)", "conditions": "NCI-H1975 s.c. in mice; 40 mg/kg three times at 7 day intervals", "experimental": "as §1"}, "[6]": {"system": "human breast cancer cells MC-19-JCK", "test": "Anti-tumor test in mice transplanted subcutaneously with tumor (MC-19-JCK)", "conditions": "MC-19-JCK s.c. in mice; administered once at 40 mg/kg", "experimental": "as §1"}, "[7]": {"system": "human breast cancer cells JIMT-1", "test": "Anti-tumor test in mice transplanted subcutaneously with tumor (JIMT-1)", "conditions": "JIMT-1 s.c. in mice; 40 mg/kg three times at 7 day intervals", "experimental": "as §1"}, "[8]": {"system": "human ovarian cancer cell line ES-2", "test": "Anti-tumor test in mice transplanted subcutaneously with tumor (ES-2)", "conditions": "ES-2 s.c. in mice", "experimental": "as §1"}, "[9]": {"system": "human ovarian cancer cells SK-OV-3", "test": "Anti-tumor test in mice transplanted subcutaneously with tumor (SK-OV-3)", "conditions": "SK-OV-3 s.c. in mice", "experimental": "as §1"}, "[10]": {"system": "human ovarian cancer cells OC-11-JCK", "test": "Anti-tumor test in mice transplanted subcutaneously with tumor (OC-11-JCK)", "conditions": "OC-11-JCK s.c. in mice; 40 mg/kg tail vein three times at 4 day intervals", "experimental": "as §1"}, "[11]": {"conditions": "40 mg/kg tail vein three times at 4 day intervals"}},
  "note": "Entries after “also recorded” stand apart in the source; their conditions may differ.",
  "data": [
    {"smiles": "CC(C)c1cc(-c2n[nH]c(=O)n2-c2ccc(CN3CCN(C)CC3)cc2)c(O)cc1O", "note": "[A-1, 5-(2,4-dihydroxy-5-isopropyl-phenyl)-4-[4-(4-methyl-piperazin-1-ylmethyl)-phenyl]-2,4-dihydro-[1,2,4]triazol-3-one]", "values": [
      {"measurement": "T/C % (lowest value from the beginning to the 21st day of administration)", "setting": "[1]; OVCAR-3 s.c. in NOD/SCID mice, 40 mg/kg tail vein three times at 4 day intervals", "value": 34.9, "unit": "%"},
      {"measurement": "anti-tumor effect (in words)", "setting": "[1]; OVCAR-3 s.c. in mice", "value": "relatively highly effective"},
      {"measurement": "anti-tumor effect (in words)", "setting": "[2]", "value": "hardly effective; also recorded: lowly effective"},
      {"measurement": "T/C % (lowest value from the beginning to the 21st day of administration)", "setting": "[2]; [11]", "value": 62.4, "unit": "%"},
      {"measurement": "T/C % (lowest value from the beginning to the 21st day of administration)", "setting": "[3]", "value": 46.4, "unit": "%"},
      {"measurement": "T/C % (lowest value from the beginning to the 21st day of administration)", "setting": "[4]", "value": 50.2, "unit": "%"},
      {"measurement": "T/C % (lowest value from the beginning to the 21st day of administration)", "setting": "[5]", "value": 49.4, "unit": "%"},
      {"measurement": "T/C % (lowest value from the beginning to the 21st day of administration)", "setting": "[6]", "value": 5.2, "unit": "%"},
      {"measurement": "T/C % (lowest value from the beginning to the 21st day of administration)", "setting": "[7]", "value": 34.9, "unit": "%"},
      {"measurement": "anti-tumor effect (in words)", "setting": "[8]", "value": "relatively highly effective"},
      {"measurement": "T/C % (lowest value from the beginning to the 21st day of administration)", "setting": "[8]; [11]", "value": 25.6, "unit": "%"},
      {"measurement": "anti-tumor effect (in words)", "setting": "[9]", "value": "relatively highly effective"},
      {"measurement": "T/C % (lowest value from the beginning to the 21st day of administration)", "setting": "[9]; [11]", "value": 3.0, "unit": "%"},
      {"measurement": "T/C % (lowest value from the beginning to the 21st day of administration)", "setting": "[10]", "value": 36.0, "unit": "%"}
    ]}
  ]
}
